Laboratory results as given in article PMC10017042 (Science Advances, 2023).
“And” between values parts separate entries of the source, which are not always exact repeats. Identical values can stand only once. Like-named read-outs stand apart in the source and are kept apart here.

Key:
[1] = test system: HIV-1; conditions: for Median fold change in CA US HIV-1 RNA from baseline: pyrimethamine monotherapy excluding LUNA-10 who stopped; for CA US HIVRNA copies/150 ng Total RNA Day 0, 6 hours / CA US HIVRNA copies/150 ng Total RNA Day 14 / CA US HIVRNA copies/150 ng Total RNA Day 42 / CA US HIVRNA copies/150 ng Total RNA Day 0, pretreatment: individual participants, one value each, below LOQ imputed as 16; for CA US HIVRNA copies/150 ng Total RNA Day 0, pretreatment: pretreatment baseline
Description: Because of low cell numbers in the baseline sample, LUNA-06 (combination arm, participant stopped at day 7) was excluded from this primary end point analysis.
For quantification of CA US HIV-1 RNA, CD4^+ T cells were isolated from peripheral blood mononuclear cells (PBMCs) by negative selection using EasySep Human CD4^+ T Cell Enrichment Cocktail ([…] Technologies). Isolation of CD4^+ T cells was performed on ice or at 4°C (unless indicated otherwise by the manufacturer). Approximately 1.5 × 10^6 CD4^+ T cells were lysed in triplicate with TRI reagent. Total RNA was isolated by the phenol/chloroform isolation method following the manufacturer’s instructions. A minimum of 150 ng of total RNA was deoxyribonuclease (DNase)–treated following the manufacturer’s instructions (DNase I, Amplification Grade, Invitrogen), and complementary DNA (cDNA) synthesis was performed in duplicate with SuperScript II (Invitrogen) following the manufacturer‘s instructions. Absolute quantification of CA US HIV-1 RNA was performed following a modified version of Pasternak et al. methodology ([72]). Briefly, the first round of nested amplification was performed in a final volume of 25 μl using 10 μl of cDNA, 2.5 μl of 10× PCR buffer (Life Technologies), 1 μl of 50 mM MgCl2 (Life Technologies), 1 μl of 10 mM deoxynucleotide triphosphate (dNTP) (Life Technologies), 0.075 μl of 100 μM US forward primer, 0.075 μl of 100 μM US reverse 1 primer, and 0.2 μl of Platinum Taq polymerase (Life Technologies) at 95°C for 5 min, followed by 15 cycles at 95°C for 30 s, 55°C for 30 s, and 72°C for […]. The second round of amplification was performed in a final volume of 25 μl using 2 μl of preamplified cDNA, 2.5 μl of […] PCR buffer (Life Technologies), 1 μl of 50 mM MgCl2 (Life Technologies), 1 μl of 10 mM dNTPs (Life Technologies), 0.05 μl of 100 μM US forward primer, 0.05 μl of 100 μM US reverse 2 primer, 0.0375 μl of US probe, and 0.2 μl of Platinum Taq polymerase (Life Technologies) at 95°C for 5 min, followed by 45 cycles at 95°C for 30 s and 60°C for 1 min. The list of primers and probe is available in table S9. The absolute number of US copies in the PCR was calculated using a standard curve ranging from 2 to 512 copies of a plasmid containing the full-length HIV-1 genome (pNL4.3.Luc.R-E-). […] The quantity of CA US HIV-1 RNA was expressed as the number of copies per 150 ng of input RNA in reverse transcription.
The measurements related to the end points CA US HIV-1 RNA, MS HIV-1 RNA, plasma HIV-1 RNA, and drug plasma levels were described as median with IQR or full range. […] The fold change difference per study arm from pretreatment CA US HIV-1 RNA levels to the time points 6 hours, day 14, and day 42 after first dosing was calculated by adding up the fold change per individual divided by the total number of measurements available per time point. We analyzed the primary end point by a generalized estimating equation model to evaluate whether any difference in the CA US HIV-1 RNA existed at any time point during the trial in any of the three interventional arms compared to the control arm. An interaction term of time and treatment was included. […] The difference between the observed and expected amount of CA US HIV-1 RNA was calculated, and combination therapy was considered synergistic if the difference and its 95% confidence interval were >0. Because of the number of participants in this pilot, all secondary end points were exploratory.

[2] = test system: HIV-1; conditions: for Change in inducible reservoir size: day 0 versus day 42; for TILDA reservoir, cells with multiply spliced HIV-RNA detectable per million CD4+ T-cells, >1year / TILDA reservoir, cells with multiply spliced HIV-RNA detectable per million CD4+ T-cells, Day 42 / TILDA reservoir, cells with multiply spliced HIV-RNA detectable per million CD4+ T-cells, Day 0, 0 hour: individual participants, one value each; for TILDA reservoir, cells with multiply spliced HIV-RNA detectable per million CD4+ T-cells, >1year: >1 year after end of treatment; for TILDA reservoir, cells with multiply spliced HIV-RNA detectable per million CD4+ T-cells, Day 0, 0 hour: pretreatment baseline
Description: Here, the measurement from the cells obtained >1 year after the last visit was used.
The frequency of CD4^+ T cells expressing MS HIV-1 RNA was determined using TILDA with some modifications to the protocol described previously by our group ([68]). Briefly, total CD4^+ T cells were isolated from PBMCs by negative magnetic selection using EasySep CD4^+ Human CD4^+ T Cell Enrichment kit ([…] Technologies). Following isolation, 1.5 × 10^6 CD4^+ T cells/ml were rested in complete RPMI 1640 for 5 to 8 hours before 12 hours of stimulation with PMA (100 ng/ml) and ionomycin (1 μg/ml) (both from Sigma-Aldrich). After stimulation, CD4^+ T cells were washed and resuspended in serum-free RPMI 1640. Cells were counted and serially diluted accordingly: 1.8 × 10^6 cells/ml, 9 × 10^5 cells/ml, 3 × 10^5 cells/ml, and 1 × 10^5 cells/m. […] In the preamplification reaction, 10 μl of the cell suspension from each dilution was dispensed into 24 to 48 wells of a 96-well plate containing 2 μl of one-step RT-PCR enzyme (Qiagen), 10 μl of 5× one-step RT-PCR buffer (Qiagen), 10 μl of Triton X-100 (0.3%), 0.25 μl of RNAsin (40 U/μl), 2 μl of dNTPs (10 mM each), 1 μl of tat1.4 forward primer (20 μM) and rev reverse primer (20 μM) (as published), and nuclease-free water to a final reaction volume of 50 μl. The one-step RT-PCR was run using the following thermocycling conditions: 50°C for 30 min, 95°C for 15 min, followed by 25 cycles of 95°C for 1 min, 55°C for 1 min, and 72°C for 2 min, and a final extension at 72°C for 5 min. After preamplification, 2 μl of the products was used as input for the real-time PCR to detect tat/rev MS HIV-1 RNA in a final reaction volume of 20 μl, which consisted of 5 μl of 4× TaqMan Fast Advanced Master mix (Thermo Fisher Scientific), 0.4 μl of tat2.0 forward primer, rev reverse primer (each at 20 μM), and MS tat/rev probe (5 μM). The real-time PCR was performed using the following program: 50°C for 5 min, 95°C for 20 s, followed by 45 cycles of 95°C for 3 s and 60°C for 30 s. Positive wells at each dilution were recorded and used to determine the frequency of cells expressing tat/rev MS HIV-1 RNA by the maximum likelihood method.

[3] = parameters: method as in PMID 22837004; conditions: assumed for the sampling design; fasted first dose; cited from earlier work

CCc1nc(N)nc(N)c1-c1ccc(Cl)cc1 [pyrimethamine]
Mean fold change in CA US HIV-1 RNA ([1]; 6 hours after first dose, arm mean): 2.11 fold | PLWH with increased CA US HIV-1 RNA (responders) ([1]; 6 hours after the first dose): six of seven | Median fold change CA US HIV-1 RNA ([1]; after 6 hours, the two arms exposed to pyrimethamine pooled (with and without VPA)): 1.8 fold | Median fold change in CA US HIV-1 RNA (normalized to day 0, 0 hours) ([1]; day 0, t = 0 hours (pretreatment baseline, normalisation point)): 1 fold | Median fold change in CA US HIV-1 RNA (normalized to day 0, 0 hours) ([1]; day 0, t = 6 hours after first dose, arm median, PLWH on cART, oral PYR 200 mg day 1 then 100 mg once daily, VPA 30 mg/kg per day): 2.1073 fold | Median fold change in CA US HIV-1 RNA (normalized to day 0, 0 hours) ([1]; day 14 (end of treatment), arm median, PLWH on cART): 1.9 fold | Median fold change in CA US HIV-1 RNA (normalized to day 0, 0 hours) ([1]; day 14 (end of treatment), arm median, PLWH on cART, listed as Pyrimethamine): 1.9129 fold | Median fold change in CA US HIV-1 RNA from baseline ([1]; day 14): 1.8 fold | Median fold change in CA US HIV-1 RNA (normalized to day 0, 0 hours) ([1]; day 42 (28 days after end of treatment), arm median, PLWH on cART): 1.7 fold | Median fold change in CA US HIV-1 RNA (normalized to day 0, 0 hours) ([1]; day 42 (28 days after end of treatment), arm median, PLWH on cART, listed as Pyrimethamine): 1.6775 fold | Median fold change in CA US HIV-1 RNA from baseline ([1]; day 42): 1.6 fold | CA US HIVRNA copies/150 ng Total RNA Day 0, 6 hours ([1]; listed as PYR): 125,01 copies/150 ng Total RNA and 126,50 copies/150 ng Total RNA and 51,31 copies/150 ng Total RNA and 94,04 copies/150 ng Total RNA and 39,82 copies/150 ng Total RNA and 55,52 copies/150 ng Total RNA and 96,01 copies/150 ng Total RNA | CA US HIVRNA copies/150 ng Total RNA Day 14 ([1]; listed as PYR): 114,91 copies/150 ng Total RNA and 111,02 copies/150 ng Total RNA and 74,67 copies/150 ng Total RNA and 54,10 copies/150 ng Total RNA and 42,33 copies/150 ng Total RNA and 62,36 copies/150 ng Total RNA and 111,26 copies/150 ng Total RNA | CA US HIVRNA copies/150 ng Total RNA Day 42 ([1]; listed as PYR): 85,80 copies/150 ng Total RNA and 54,17 copies/150 ng Total RNA and 82,71 copies/150 ng Total RNA and 69,81 copies/150 ng Total RNA and 29,28 copies/150 ng Total RNA and 101,16 copies/150 ng Total RNA and 84,39 copies/150 ng Total RNA | CA US HIVRNA copies/150 ng Total RNA Day 0, pretreatment ([1]; listed as PYR): 32,60 copies/150 ng Total RNA and 68,92 copies/150 ng Total RNA and 24,35 copies/150 ng Total RNA and 49,43 copies/150 ng Total RNA and 16,00 copies/150 ng Total RNA and 79,98 copies/150 ng Total RNA and 51,15 copies/150 ng Total RNA | Median inducible reservoir (TILDA) ([2]; after treatment (day 42)): 10.0 cells per million CD4+ T cells | Median inducible reservoir (TILDA) ([2]; before treatment (day 0)): 15.1 cells per million CD4+ T cells | Change in inducible reservoir size [2]: do not indicate a significant change | TILDA reservoir, cells with multiply spliced HIV-RNA detectable per million CD4+ T-cells, >1year ([2]; listed as PYR): 19.3 per million CD4+ T-cells and 91.8 per million CD4+ T-cells and 13.9 per million CD4+ T-cells and 6.1 per million CD4+ T-cells and 22.2 per million CD4+ T-cells and 15.2 per million CD4+ T-cells | TILDA reservoir, cells with multiply spliced HIV-RNA detectable per million CD4+ T-cells, Day 42 ([2]; listed as PYR): 8.8 per million CD4+ T-cells and 122.8 per million CD4+ T-cells and 9.0 per million CD4+ T-cells and 1.6 per million CD4+ T-cells and 22.9 per million CD4+ T-cells | TILDA reservoir, cells with multiply spliced HIV-RNA detectable per million CD4+ T-cells, Day 0, 0 hour ([2]; listed as PYR): 2.7 per million CD4+ T-cells and 109.8 per million CD4+ T-cells and 16.9 per million CD4+ T-cells and 11.5 per million CD4+ T-cells and 15.1 per million CD4+ T-cells and 20.1 per million CD4+ T-cells and 2.8 per million CD4+ T-cells | Tmax [3]: approximately 4 hours

CCCC(CCC)C(=O)O [valproic acid]
Median CA US HIV-1 RNA compared to pretreatment levels ([1]; any time point): did not have significantly increased | CA US HIVRNA copies/150 ng Total RNA Day 0, 6 hours ([1]; listed as VPA): 42,74 copies/150 ng Total RNA and 53,04 copies/150 ng Total RNA and 19,23 copies/150 ng Total RNA and 101,51 copies/150 ng Total RNA and 51,59 copies/150 ng Total RNA and 10,16 copies/150 ng Total RNA and 16,00 copies/150 ng Total RNA | CA US HIVRNA copies/150 ng Total RNA Day 14 ([1]; listed as VPA): 28,40 copies/150 ng Total RNA and 97,80 copies/150 ng Total RNA and 16,00 copies/150 ng Total RNA and 47,89 copies/150 ng Total RNA and 161,79 copies/150 ng Total RNA and 18,41 copies/150 ng Total RNA and 18,82 copies/150 ng Total RNA | CA US HIVRNA copies/150 ng Total RNA Day 42 ([1]; listed as VPA): 49,74 copies/150 ng Total RNA and 59,03 copies/150 ng Total RNA and 16,00 copies/150 ng Total RNA and 52,98 copies/150 ng Total RNA and 59,33 copies/150 ng Total RNA and 22,83 copies/150 ng Total RNA | CA US HIVRNA copies/150 ng Total RNA Day 0, pretreatment ([1]; listed as VPA): 95,16 copies/150 ng Total RNA and 39,10 copies/150 ng Total RNA and 16,00 copies/150 ng Total RNA and 76,70 copies/150 ng Total RNA and 12,93 copies/150 ng Total RNA and 22,90 copies/150 ng Total RNA | Change in inducible reservoir size [2]: remained stable | TILDA reservoir, cells with multiply spliced HIV-RNA detectable per million CD4+ T-cells, >1year ([2]; listed as VPA): 2.5 per million CD4+ T-cells and 25.5 per million CD4+ T-cells and 286.2 per million CD4+ T-cells and 2.2 per million CD4+ T-cells and 19.0 per million CD4+ T-cells | TILDA reservoir, cells with multiply spliced HIV-RNA detectable per million CD4+ T-cells, Day 42 ([2]; listed as VPA): 26.0 per million CD4+ T-cells and 12.7 per million CD4+ T-cells and 1.2 per million CD4+ T-cells and 12.9 per million CD4+ T-cells | TILDA reservoir, cells with multiply spliced HIV-RNA detectable per million CD4+ T-cells, Day 0, 0 hour ([2]; listed as VPA): 12.5 per million CD4+ T-cells and 100.7 per million CD4+ T-cells and 326.5 per million CD4+ T-cells and 2.5 per million CD4+ T-cells and 17.1 per million CD4+ T-cells and 3.4 per million CD4+ T-cells | Tmax [3]: approximately 4 hours
